Read-outs that look alike come from different tables or passages of the source.
What was measured:
[1] = system: C8166 cells infected with HIV-1IIIB or TZM-bl cells infected with HIV-1YU-2; test: Combination antiviral activity assay (CompuSyn CI and DRI); format: cell-based
[2] = Cytotoxicity, MTT assay, PBMCs; format: cell-based; details: human, PBMC, seven days, read-out: CC50 (Mean ± SD)
CYP2C19 = CYP2C19 (Homo sapiens, UniProt P33261); test: Cytochrome P450 inhibition, human liver microsomes, S-mephenytoin
CYP2C19, sequence (P33261 whole entry): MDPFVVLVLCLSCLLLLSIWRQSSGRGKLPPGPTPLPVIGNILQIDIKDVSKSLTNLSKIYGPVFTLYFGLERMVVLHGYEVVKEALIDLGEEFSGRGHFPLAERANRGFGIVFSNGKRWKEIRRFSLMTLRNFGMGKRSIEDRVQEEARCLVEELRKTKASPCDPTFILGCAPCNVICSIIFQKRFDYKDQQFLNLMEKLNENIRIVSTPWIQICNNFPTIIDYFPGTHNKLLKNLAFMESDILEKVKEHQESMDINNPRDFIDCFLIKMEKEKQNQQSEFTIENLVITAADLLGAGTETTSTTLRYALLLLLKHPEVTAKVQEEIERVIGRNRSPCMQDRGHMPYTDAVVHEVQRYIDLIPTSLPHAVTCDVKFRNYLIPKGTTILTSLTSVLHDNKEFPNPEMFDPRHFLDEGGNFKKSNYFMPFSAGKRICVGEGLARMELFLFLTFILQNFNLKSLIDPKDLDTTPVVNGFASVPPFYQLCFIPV

HIV-1IIIB [3] = test: Anti-HIV-1 activity in the presence of human serum, p24 in C8166; details: Human immunodeficiency virus 1, C8166, HIV-1IIIB
[4] = system: HIV-1IIIB chronically infected H9 cells; test: HIV-1 replication in chronically infected H9/HIV-1IIIB cells, p24; format: cell-based
HIV-1Yu-2(G140S/Q148H) = test: microbe, parasite or virus in culture; format: cell-based; details: Human immunodeficiency virus 1, TZM-bl
CYP2D6 = CYP2D6 (Homo sapiens, UniProt P10635); test: Cytochrome P450 inhibition, human liver microsomes, dextromethorphan
CYP2D6, sequence (P10635 whole entry): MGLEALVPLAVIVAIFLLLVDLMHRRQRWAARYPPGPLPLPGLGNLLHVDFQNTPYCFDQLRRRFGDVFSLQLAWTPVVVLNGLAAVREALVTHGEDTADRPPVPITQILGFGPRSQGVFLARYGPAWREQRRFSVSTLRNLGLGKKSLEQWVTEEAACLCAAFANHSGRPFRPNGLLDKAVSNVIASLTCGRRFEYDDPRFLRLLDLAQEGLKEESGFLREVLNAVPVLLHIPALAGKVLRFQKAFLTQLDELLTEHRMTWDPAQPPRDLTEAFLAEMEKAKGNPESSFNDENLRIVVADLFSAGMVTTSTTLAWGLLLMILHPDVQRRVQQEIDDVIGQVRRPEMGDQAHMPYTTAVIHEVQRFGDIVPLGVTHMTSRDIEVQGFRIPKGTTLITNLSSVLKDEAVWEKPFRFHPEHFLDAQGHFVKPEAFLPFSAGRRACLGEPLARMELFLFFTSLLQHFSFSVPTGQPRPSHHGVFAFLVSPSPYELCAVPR

CYP1A2 = target: T1, CYP1A2 (Homo sapiens, UniProt P05177); test: Cytochrome P450 inhibition, human liver microsomes, phenacetin
T1 sequence (P05177 1-516): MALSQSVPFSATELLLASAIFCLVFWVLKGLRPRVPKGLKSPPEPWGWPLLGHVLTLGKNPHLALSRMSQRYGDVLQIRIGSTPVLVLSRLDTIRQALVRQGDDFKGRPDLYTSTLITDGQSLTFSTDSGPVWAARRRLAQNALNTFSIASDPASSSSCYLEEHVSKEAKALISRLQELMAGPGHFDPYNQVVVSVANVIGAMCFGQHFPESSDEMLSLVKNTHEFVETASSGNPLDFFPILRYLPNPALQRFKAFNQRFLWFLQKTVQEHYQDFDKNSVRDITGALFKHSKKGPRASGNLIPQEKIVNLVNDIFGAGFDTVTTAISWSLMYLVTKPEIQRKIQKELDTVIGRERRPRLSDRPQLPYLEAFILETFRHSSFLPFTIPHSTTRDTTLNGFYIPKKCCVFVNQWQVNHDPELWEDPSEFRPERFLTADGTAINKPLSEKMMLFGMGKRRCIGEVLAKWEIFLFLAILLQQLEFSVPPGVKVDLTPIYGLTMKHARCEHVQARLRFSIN

CYP2C9 = CYP2C9 (Homo sapiens, UniProt P11712); test: Cytochrome P450 inhibition, human liver microsomes, diclofenac
CYP2C9, sequence (P11712 whole entry): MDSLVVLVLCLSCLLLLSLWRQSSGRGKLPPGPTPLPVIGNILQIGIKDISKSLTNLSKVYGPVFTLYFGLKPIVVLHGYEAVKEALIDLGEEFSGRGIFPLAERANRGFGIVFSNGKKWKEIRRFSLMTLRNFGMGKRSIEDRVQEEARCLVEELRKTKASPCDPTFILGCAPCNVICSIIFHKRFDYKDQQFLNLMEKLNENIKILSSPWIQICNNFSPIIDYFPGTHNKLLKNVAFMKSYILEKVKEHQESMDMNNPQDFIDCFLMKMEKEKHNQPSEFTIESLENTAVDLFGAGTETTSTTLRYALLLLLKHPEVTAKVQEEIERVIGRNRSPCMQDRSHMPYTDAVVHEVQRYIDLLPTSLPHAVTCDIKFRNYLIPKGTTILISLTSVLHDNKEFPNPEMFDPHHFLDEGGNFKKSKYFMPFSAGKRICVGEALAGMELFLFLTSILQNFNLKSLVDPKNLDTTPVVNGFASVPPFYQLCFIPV

[5] = Cytotoxicity, MTT assay, MT-4 cells; format: cell-based; details: human, three days, read-out: CC50 (Mean ± SD)
HIV-1IIIB [6] = test: Anti-HIV-1 activity, MTT protection of MT-4 cells; format: cell-based; details: Human immunodeficiency virus 1, MT4, MT-4, MTT
[7] = Cytotoxicity, MTT assay, H9/HIV-1IIIB cells; format: cell-based; details: human, three days, read-out: CC50 (Mean ± SD)
CYP3A4M = CYP3A4M (Homo sapiens, UniProt P08684); test: Cytochrome P450 inhibition, human liver microsomes, midazolam
CYP3A4M, sequence (P08684 whole entry): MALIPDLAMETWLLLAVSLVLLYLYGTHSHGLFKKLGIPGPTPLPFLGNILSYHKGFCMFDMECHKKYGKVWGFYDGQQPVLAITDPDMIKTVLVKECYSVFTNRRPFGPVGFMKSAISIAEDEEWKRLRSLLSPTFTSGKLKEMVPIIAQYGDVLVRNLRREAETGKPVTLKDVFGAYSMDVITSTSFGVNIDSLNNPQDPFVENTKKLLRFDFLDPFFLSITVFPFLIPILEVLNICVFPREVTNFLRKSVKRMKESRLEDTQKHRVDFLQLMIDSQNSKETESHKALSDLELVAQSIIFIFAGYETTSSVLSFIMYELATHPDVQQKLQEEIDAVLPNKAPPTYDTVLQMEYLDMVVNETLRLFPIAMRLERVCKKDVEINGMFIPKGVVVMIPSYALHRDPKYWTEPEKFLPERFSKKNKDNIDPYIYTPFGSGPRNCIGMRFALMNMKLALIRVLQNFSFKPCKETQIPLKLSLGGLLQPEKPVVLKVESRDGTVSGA

HIV-1IIIB [8] = test: Anti-HIV-1 activity, syncytia (CPE) count in C8166 cells; format: cell-based; details: Human immunodeficiency virus 1
[9] = Cytotoxicity, MTT assay, C8166 cells; format: cell-based; details: human, three days, read-out: CC50 (Mean ± SD)
[10] = single drug in combination K-5a2+DRV
[11] = single drug in combination K-5a2+DC521022
[12] = single drug in combination K-5a2+TDF
[13] = single drug in combination K-5a2+T-20
[14] = single drug in combination K-5a2+ETR
[15] = single drug in combination K-5a2+DTG
[16] = single drug in combination K-5a2+FTC
[17] = single drug in combination K-5a2+3TC
[18] = single drug in combination K-5a2+AZT
[19] = single drug in combination K-5a2+MVC

CC(C)CN(C[C@@H](O)[C@H](Cc1ccccc1)NC(=O)O[C@H]1CO[C@H]2OCC[C@H]21)S(=O)(=O)c1ccc(N)cc1 [DRV, darunavir, reference compound]
DRI Value ED75 [1, 10]: 2.82 ± 0.21
DRI Value ED90 [1, 10]: 3.41 ± 0.86
DRI Value ED95 [1, 10]: 3.93 ± 1.44

thioraviroc [DC521022, reference compound]
DRI Value ED75 [1, 11]: 5.41 ± 4.21
DRI Value ED90 [1, 11]: 7.32 ± 6.96
DRI Value ED95 [1, 11]: 9.08 ± 9.61

C[C@H](Cn1cnc2c(N)ncnc21)OCP(=O)(O)O [TDF, tenofovir, reference compound]
DRI Value ED75 [1, 12]: 3.22 ± 0.71
DRI Value ED90 [1, 12]: 3.46 ± 0.35
DRI Value ED95 [1, 12]: 3.69 ± 0.66

enfuvirtide [T-20, reference compound]
DRI Value ED75 [1, 13]: 2.05 ± 0.42
DRI Value ED90 [1, 13]: 2.37 ± 0.18
DRI Value ED95 [1, 13]: 2.69 ± 0.66

Cc1nnc(C(=O)NC(C)(C)c2nc(C(=O)NCc3ccc(F)cc3)c(O)c(=O)n2C)o1 [RAL, raltegravir, reference compound]
DRI Value ED75 [1]: 3.08 ± 1.11
DRI Value ED90 [1]: 3.50 ± 1.64
DRI Value ED95 [1]: 3.83 ± 2.07

Cc1cc(C#N)cc(C)c1Oc1nc(Nc2ccc(C#N)cc2)nc(N)c1Br [ETR, etravirine, reference compound]
CC50 at 7 days [2]: 34.5 ± 3.06 µM
IC50 (CYP2C19): 0.5 µM
EC50 (HIV-1IIIB [3]; C8166, p24, 20% human serum): 0.00656 ± 0.00489 µM
EC50 (HIV-1IIIB [3]; C8166, p24, 40% human serum): 0.00209 ± 0.00065 µM
EC50 ([4]; Human immunodeficiency virus 1, HIV-1IIIB, H9/HIV-1IIIB chronically infected, p24): > 50 µM
Inhibition of HIV-1 replication in HIV-1IIIB chronically infected H9 cells ([4]; at a concentration of 50.00 µM): could not inhibit the replication
DRI Value ED75 [1, 14]: 2.44 ± 0.52
DRI Value ED90 [1, 14]: 2.20 ± 0.58
DRI Value ED95 [1, 14]: 2.06 ± 0.61
EC50 (HIV-1Yu-2(G140S/Q148H)): < 0.00013 µM
IC50 (CYP2D6): 12 µM
IC50 (CYP1A2): 7.48 µM
IC50 (CYP2C9): 0.28 µM
CC50 at 3 days [5]: 27.4 ± 5.46 µM
EC50 (HIV-1IIIB [6]): 0.00615 ± 0.00176 µM
CC50 at 3 days [7]: 30.4 ± 1.59 µM
IC50 (CYP3A4M): 41.3 µM
EC50 (HIV-1IIIB [8]): 0.00174 ± 0.00067 µM
CC50 at 3 days [9]: > 50 µM

C[C@@H]1CCO[C@H]2Cn3cc(C(=O)NCc4ccc(F)cc4F)c(=O)c(O)c3C(=O)N12 [DTG, dolutegravir, reference compound]
DRI Value ED75 [1, 15]: 2.37 ± 0.28
DRI Value ED90 [1, 15]: 2.50 ± 0.41
DRI Value ED95 [1, 15]: 2.61 ± 0.68

Nc1nc(=O)n([C@@H]2CS[C@H](CO)O2)cc1F [FTC, emtricitabine, reference compound]
DRI Value ED75 [1, 16]: 2.38 ± 0.10
DRI Value ED90 [1, 16]: 2.22 ± 0.23
DRI Value ED95 [1, 16]: 2.11 ± 0.32

Nc1ccn([C@@H]2CS[C@H](CO)O2)c(=O)n1 [3TC, lamivudine, reference compound]
DRI Value ED75 [1, 17]: 2.83 ± 0.52
DRI Value ED90 [1, 17]: 3.28 ± 0.80
DRI Value ED95 [1, 17]: 3.64 ± 1.06

Cc1cn([C@H]2C[C@H](N=[N+]=[N-])[C@@H](CO)O2)c(=O)[nH]c1=O [AZT, zidovudine, reference compound]
DRI Value ED75 [1, 18]: 4.88 ± 2.30
DRI Value ED90 [1, 18]: 5.60 ± 2.33
DRI Value ED95 [1, 18]: 6.52 ± 3.94

maraviroc [MVC, reference compound]
DRI Value ED75 [1, 19]: 4.58 ± 0.50
DRI Value ED90 [1, 19]: 5.10 ± 0.83
DRI Value ED95 [1, 19]: 5.49 ± 1.09

Source: article PMC9699427 (Viruses, 2022)
